This passage reports IC50 and A1/A2A results from patent US20110105494A1, “HETEROARYL SUBSTITUTED ARYLINDENOPYRIMIDINES AND THEIR USE AS HIGHLY SELECTIVE ADENOSINE A2A RECEPTOR ANTAGONISTS” (priority 2009, published 2011).

pIC50: −log10 of the molar value.

Assay [1] has as its target T1, human adenosine A2A receptor (Homo sapiens, UniProt P29274).
T1 construct: expressed in transfected cells; host or cells: CHO-K1 cells with cAMP inducible beta-galactosidase reporter gene
Nature of the assay: Adenosine A2A Receptor Functional Assay (A2AGAL2). The assay is classed as cell-based. The note with it: for pIC50: CHO-K1 cells overexpressing human A2A receptor, cAMP inducible beta-galactosidase reporter, antagonist mode vs 15 nM NECA challenge; for A1/A2A: selectivity ratio of A1Gal2 value to A2AGal2 value. The protocol: Adenosine A2A Receptor Functional Assay (A2AGAL2)
To initiate the functional assay, cryopreserved CHO—K1 cells overexpressing the human adenosine A2A receptor and containing a cAMP inducible beta-galactosidase reporter gene were thawed, centrifuged, DMSO containing media removed, and then seeded with fresh culture media into clear 384-well tissue culture treated plates (BD #353961) at a concentration of 10K cells/well. Prior to assay, these plates were cultured for two days at 37° C., 5% CO2, 90% Rh. On the day of the functional assay, culture media was removed and replaced with 45 μL assay medium (Hams/F-12 Modified (Mediatech #10-080CV) supplemented w/0.1% BSA). Test compounds were diluted and 11 point curves created at a 1000× concentration in 100% DMSO. Immediately after addition of assay media to the cell plates, 50 nL of the appropriate test compound antagonist or agonist control curves were added to cell plates using a Cartesian Hummingbird. Compound curves were allowed to incubate at room temperature on cell plates for approximately 15 minutes before addition of a 15 nM NECA (Sigma E2387) agonist challenge (5 μL volume). A control curve of NECA, a DMSO/Media control, and a single dose of Forskolin (Sigma F3917) were also included on each plate. After additions, cell plates were allowed to incubate at 37° C., 5% CO2, 90% Rh for 5.5-6 hours. After incubation, media were removed, and cell plates were washed 1×50 μL with DPBS w/o Ca & Mg (Mediatech 21-031-CV). Into dry wells, 20 μL of 1× Reporter Lysis Buffer (Promega E3971 (diluted in dH2O from 5× stock)) was added to each well and plates frozen at −20° C. overnight. For β-galactosidase enzyme colorimetric assay, plates were thawed out at room temperature and 20 μL 2× assay buffer (Promega) was added to each well. Color was allowed to develop at 37° C., 5% CO2, 90% Rh for 1-1.5 h or until reasonable signal appeared. The colorimetric reaction was stopped with the addition of 60 μL/well 1M sodium carbonate. Plates were counted at 405 nm on a SpectraMax Microplate Reader (Molecular Devices). Data was analyzed in Microsoft Excel and IC/EC50 curves were fit using a standardized macro.

For assay [2], the target named is T2, human adenosine A1 receptor (Homo sapiens, UniProt P30542).
T2 construct: expressed in transfected cells; host or cells: CHO-K1 cells with cAMP inducible beta-galactosidase reporter gene
T2 sequence (P30542 1-326): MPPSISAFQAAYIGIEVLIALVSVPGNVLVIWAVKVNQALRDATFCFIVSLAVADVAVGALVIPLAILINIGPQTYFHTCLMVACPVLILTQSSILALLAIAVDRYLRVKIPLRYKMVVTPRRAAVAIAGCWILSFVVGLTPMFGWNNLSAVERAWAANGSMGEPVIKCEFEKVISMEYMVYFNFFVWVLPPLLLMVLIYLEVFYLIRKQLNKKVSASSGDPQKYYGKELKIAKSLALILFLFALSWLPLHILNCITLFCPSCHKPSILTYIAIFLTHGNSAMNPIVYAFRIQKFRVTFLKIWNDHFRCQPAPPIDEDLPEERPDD
Nature of the assay: Adenosine A1 Receptor Functional Assay (A1GAL2). The note with it: CHO-K1 cells overexpressing human A1 receptor, cAMP inducible beta-galactosidase reporter; antagonist mode vs 4 nM r-PIA/1 uM Forskolin challenge. The assay is classed as cell-based. The protocol:
Adenosine A1 Receptor Functional Assay (A1GAL2)
To initiate the functional assay, cryopreserved CHO—K1 cells overexpressing the human adenosine A1 receptor and containing a cAMP inducible beta-galactosidase reporter gene were thawed, centrifuged, DMSO containing media removed, and then seeded with fresh culture media into clear 384-well tissue culture treated plates (BD #353961) at a concentration of 10K cells/well. Prior to assay, these plates were cultured for two days at 37° C., 5% CO2, 90% Rh. On the day of the functional assay, culture media was removed and replaced with 45 μL assay medium (Hams/F-12 Modified (Mediatech # 10-080CV) supplemented w/0.1% BSA). Test compounds were diluted and 11 point curves created at a 1000× concentration in 100% DMSO. Immediately after addition of assay media to the cell plates, […] of the appropriate test compound antagonist or agonist control curves were added to cell plates using a Cartesian Hummingbird. Compound curves were allowed to incubate at room temperature on cell plates for approximately 15 minutes before addition of a 4 nM r-PIA (Sigma P4532)/1 uM Forskolin (Sigma F3917) agonist challenge (5 μL volume). A control curve of r-PIA in 1 uM Forskolin, a DMSO/Media control, and a single dose of Forskolin were also included on each plate. After additions, cell plates were allowed to incubate at 37° C., 5% CO2, 90% Rh for 5.5-6 hours. After incubation, media was removed, and cell plates were washed 1×50 μL with DPBS w/o Ca & Mg (Mediatech 21-031-CV). Into dry wells, 20 μL of 1× Reporter Lysis Buffer (Promega E3971 (diluted in dH2O from 5× stock)) was added to each well and plates frozen at −20° C. overnight. For β-galactosidase enzyme colorimetric assay, plates were thawed out at room temperature and 20 μL 2× assay buffer (Promega) was added to each well. Color was allowed to develop at 37° C., 5% CO2, 90% Rh for 1-1.5 h or until reasonable signal appeared. The colorimetric reaction was stopped with the addition of 60 μL/well 1M sodium carbonate. Plates were counted at 405 nm on a SpectraMax Microplate Reader (Molecular Devices). Data was analyzed in Microsoft Excel and IC/EC50 curves were fit using a standardized macro.

T1 sequence (P29274 whole entry): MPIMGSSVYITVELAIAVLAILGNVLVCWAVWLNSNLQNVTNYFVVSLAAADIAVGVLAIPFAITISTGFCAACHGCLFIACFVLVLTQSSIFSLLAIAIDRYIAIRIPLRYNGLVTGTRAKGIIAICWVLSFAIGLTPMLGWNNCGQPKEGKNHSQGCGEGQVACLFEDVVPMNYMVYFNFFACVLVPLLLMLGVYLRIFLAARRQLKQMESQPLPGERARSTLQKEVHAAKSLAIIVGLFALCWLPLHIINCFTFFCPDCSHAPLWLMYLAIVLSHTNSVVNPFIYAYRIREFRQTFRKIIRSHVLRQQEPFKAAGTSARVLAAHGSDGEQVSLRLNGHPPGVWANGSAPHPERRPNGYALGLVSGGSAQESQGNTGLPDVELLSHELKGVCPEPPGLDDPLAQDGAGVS

Broadly, the pIC50 is the negative decadic logarithm of the IC50, by convention in mol/L. Read a high pIC50 as a low IC50. Turning to `Cc1cc(-c2cccc3c2-c2nc(N)nc(-c4ccccc4)c2C3=O)cnc1N1CCN(C)CC1` [Example 10, 2-Amino-9-[5-methyl-6-(4-methyl-piperazin-1-yl)-pyridin-3-yl]-4-phenyl-indeno [1,2-d]pyrimidin-5-one], in assay [1], the pIC50 is 8.52 and the A1/A2A is recorded as 63.3333. In addition, the negative-log IC50 (pIC50) in assay [2] is 6.72.

For the molecule `Cc1c(-c2cccc3c2-c2nc(N)nc(-c4ccccc4)c2C3=O)cnn1-c1ccccc1` [Example 7, 2-Amino-9-(5-methyl-1-phenyl-1H-pyrazol-4-yl)-4-phenyl-indeno [1,2-d]pyrimidin-5-one], in assay [1], the pIC50 is 7.77 and the A1/A2A was found to be 51.1765. In addition, the pIC50 in assay [2] was 6.06.

As to `Nc1nc(-c2ccccc2)c2c(n1)-c1c(cccc1-c1ccc(N3CCN(Cc4ccccc4)CC3)nc1)C2=O` [Example 8, 2-Amino-9-[6-(4-benzyl-piperazin-1-yl)-pyridin-3-yl]-4-phenyl-indeno [1,2-d]pyrimidin-5-one], the values for the pIC50 in assay [1] and in assay [2] were 8.25 and 6.25, respectively. For the same molecule, the A1/A2A in assay [1] was determined as 100.

As to `Nc1nc(-c2ccc(F)cc2)c2c(n1)-c1c(cccc1-c1cnn(CCN3CCOCC3)c1)C2=O` [Example 2, 2-Amino-4-(4-fluoro-phenyl)-9-[1-(2-morpholin-4-yl-ethyl)-1H-pyrazol-4-yl]-indeno[1,2-d]pyrimidin-5-one], the figures for the pIC50 in assay [1] and in assay [2] were 7.90 and 5.69, respectively. For the same molecule, in assay [1], the A1/A2A was found to be 160.288.

On to `CC(C)CCN1CCN(c2ccc(-c3cccc4c3-c3nc(N)nc(-c5ccc(F)cc5)c3C4=O)cn2)CC1` [Example 11, 2-Amino-4-(4-fluoro-phenyl)-9-{6-[4-(3-methyl-butyl)-piperazin-1-yl]-pyridin-3-yl}-indeno[1,2-d]pyrimidin-5-one], for which the pIC50 in assay [1] is 7.74; in assay [2] it was 6.00. The A1/A2A in assay [1] was 55.5556.

As to `Cc1nc(-c2ccccc2)sc1-c1cccc2c1-c1nc(N)nc(-c3ccc(F)cc3)c1C2=O` [Example 5, 2-Amino-4-(4-fluoro-phenyl)-9-(4-methyl-2-phenyl-thiazol-5-yl)-indeno[1,2-d]pyrimidin-5-one], the pIC50 in assay [1] was 7.77; in assay [2], 6.04.

In the case of `CCOC(=O)Cn1cc(-c2cccc3c2-c2nc(N)nc(-c4ccc(F)cc4)c2C3=O)cn1` [Example 6, {4-[2-Amino-4-(4-fluoro-phenyl)-5-oxo-5H-indeno[1,2-d]pyrimidin-9-yl]-pyrazol-1-yl}-acetic acid ethyl ester], in assay [1], the pIC50 is 8.38 and the A1/A2A is 53.6847. In assay [2], this molecule showed a pIC50 of 6.65.

Consider `Cc1nc(-c2ccccc2)sc1-c1cccc2c1-c1nc(N)nc(-c3ccccc3)c1C2=O` [Example 1, 2-Amino-9-(4-methyl-2-phenyl-thiazol-5-yl)-4-phenyl-indeno[1,2-d]pyrimidin-5-one], for which, in assay [1], the negative logarithm of the IC50 (pIC50) is 8.15 and the A1/A2A is listed as 1056.34. The pIC50 in assay [2] is 5.12.

Take `N#Cc1ccc(-c2cccc3c2-c2nc(N)nc(-c4ccccc4)c2C3=O)s1` [Example 4, 5-(2-Amino-5-oxo-4-phenyl-5H-indeno[1,2-d]pyrimidin-9-yl)-thiophene-2-carbonitrile]: in assay [1], the pIC50 was 8.89 and the A1/A2A was 92.3077. In addition, in assay [2], the pIC50 was 6.92.

On to `Cc1nc(-c2ccc(C(F)(F)F)cc2)sc1-c1cccc2c1-c1nc(N)nc(-c3ccc(F)cc3)c1C2=O` [Example 3, 2-Amino-4-(4-fluoro-phenyl)-9-[4-methyl-2-(4-trifluoromethyl-phenyl)-thiazol-5-yl]-indeno[1,2-d]pyrimidin-5-one], for which, in assay [1], the pIC50 is 7.30 and the A1/A2A was 108. Also, the pIC50 in assay [2] is 5.27.

Regarding `Nc1nc(-c2ccc(F)cc2)c2c(n1)-c1c(cccc1-c1ccc(N3CCN(CC4CC4)CC3)nc1)C2=O` [Example 9, 2-Amino-9-[6-(4-cyclopropylmethyl-piperazin-1-yl)-pyridin-3-yl]-4-(4-fluoro-phenyl)-indeno[1,2-d]pyrimidin-5-one], in assay [1], the pIC50 is 8.10 and the A1/A2A is given as 73.4177. The same molecule showed a negative logarithm of the IC50 (pIC50) in assay [2] of 6.24.
